Laboratory results reported in EP4603105A1, “PHARMACEUTICAL COMPOSITION CONTAINING CYCLIC COMPOUND HAVING SELECTIVE KRAS INHIBITORY EFFECT AGAINST HRAS AND NRAS” (CHUGAI SEIYAKU KABUSHIKI KAISHA, priority 2022, dated 2024).
Where two headings read alike, the source gives them in different places. *1 amine or outer side, *2 acyl side, *3 side chain or, on linkers, in order; H or OH if unused. Where a SMILES comes first, the peptide text is derived from it. Bridges are numbered along the chain shown (N, C = ends). [ ]: non-standard residue; d: D form. The star is where a group is joined. hPhe(3-Cl-4-CF3) = N[C@@H](CCc1ccc(C(F)(F)F)c(Cl)c1)C(=O)O; X18 = CCCCN([C@@H](Cc1ccc(C(F)(F)F)cc1)C(=O)[*:2])[*:1]; NPrPhe(4-CF3) = CCCN[C@@H](Cc1ccc(C(F)(F)F)cc1)C(=O)O; NMeGly(cPent) = CN[C@H](C(=O)O)C1CCCC1; cisHyp = O=C(O)[C@@H]1C[C@H](O)CN1; NMeD = CN[C@@H](CC(=O)O)C(=O)O; NMeL = CN[C@@H](CC(C)C)C(=O)O; Morpholide = C1CN(*)CCO1; NMeA = CN[C@@H](C)C(=O)O; Ac5c = NC1(C(=O)O)CCCC1; Aze = O=C(O)[C@@H]1CCN1; Sar = CNCC(=O)O

Tests used:
[1] = tested on: human lung cancer strain NCI-H441; assay type: cell-based
Method in brief: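 Step one: dispense the test compound in serial DMSO dilutions. Step three: add the reagent and measure […].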

[2] = molecular target: GDP-bound NRAS wild-type protein (Homo sapiens, UniProt P01111); test: Binding to NRAS by surface plasmon resonance (SPR), KD and KD ratio to KRAS
Sequence of GDP-bound NRAS wild-type protein (P01111 whole entry): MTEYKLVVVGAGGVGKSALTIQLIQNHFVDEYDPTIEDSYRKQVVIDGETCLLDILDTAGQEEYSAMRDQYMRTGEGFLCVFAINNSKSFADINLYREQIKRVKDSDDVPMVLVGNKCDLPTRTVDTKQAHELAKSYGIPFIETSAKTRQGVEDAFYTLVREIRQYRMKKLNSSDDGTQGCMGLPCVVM
Method in brief: (§1)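 Running buffer contained 10 µM GDP and 10 mM MgCl2 to keep RAS in the GDP state, with 4% DMSO at pH 7.4. Compounds were flowed at 100 µL/min in 75 s steps of rising concentration over captured biotin-Avi RAS at 30°C. Sensorgrams were fitted 1:1 for KD.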

[3] = molecular target: HRAS wild-type protein (Homo sapiens, UniProt P01112); test: Binding to HRAS by surface plasmon resonance (SPR), KD and KD ratio to KRAS
Sequence of HRAS wild-type protein (P01112 whole entry): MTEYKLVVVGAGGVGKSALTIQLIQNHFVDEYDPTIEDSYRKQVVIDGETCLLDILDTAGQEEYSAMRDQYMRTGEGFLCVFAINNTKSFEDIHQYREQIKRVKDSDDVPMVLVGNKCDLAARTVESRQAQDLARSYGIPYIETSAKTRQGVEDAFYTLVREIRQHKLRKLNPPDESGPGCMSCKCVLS
Method in brief: as §1

[4] = ratio of KD for GDP-bound NRAS wild-type protein to KD for KRAS
[5] = ratio of KD for HRAS wild-type protein to KD for KRAS
[6] = ratio of the KD value with respect to GDP-bound NRAS wild-type protein to the KD value with respect to KRAS
[7] = ratio of the KD value with respect to HRAS wild-type protein to the KD value with respect to KRAS

Question: What does the source list for `CCCCN1C(=O)[C@@H]2CCN2C(=O)[C@H](C)N(C)C(=O)[C@H]([C@@H](C)CC)NC(=O)[C@H](CC(C)C)N(C)C(=O)C[C@@H](C(=O)N2CCOCC2)N(C)C(=O)[C@H](C2CCCC2)N(C)C(=O)C2(CCCC2)NC(=O)[C@@H]2CCCN2C(=O)[C@H](CCc2ccc(C(F)(F)F)c(Cl)c2)NC(=O)CN(C)C(=O)[C@@H]1Cc1ccc(C(F)(F)F)cc1` [PP0106] ([NMeL]I[NMeA][Aze][X18][Sar][hPhe(3-Cl-4-CF3)]P[Ac5c][NMeGly(cPent)][NMeD]-Morpholide; lactam N-11)?
Answer: IC50 [1]: 12.3 nM; NRAS /KRAS [2, 4]: C (A compound having a KD ratio of 0.1 or more and less than 3 is denoted as C); HRAS /KRAS [3, 5]: B (a compound having 3 or more and less than 10 is denoted as B)

Question: For `CCCO[C@@H]1C[C@H]2C(=O)NC3(CC(C)(C)C3)C(=O)N(C)[C@@H](C3CCCC3)C(=O)N(C)[C@H](C(=O)N(C)C)CC(=O)N(C)[C@H]3CCCCc4ccc(cc4)C[C@@H](C(=O)N(C)CC(=O)N[C@@H](CCc4ccc(C(F)(F)F)c(OC)c4)C(=O)N2C1)N1CC/C=C\C[C@@H](C1=O)N(C)C(=O)CN(C)C(=O)[C@H]([C@@H](C)CC)NC3=O` [PP3077], which IC50 [1] is on record?
Answer: 0.8 nM

Question: And the “NRAS /KRAS” value [2, 4]?
Answer: A (a compound having 10 or more and less than 20 is denoted as A)

Question: And the “HRAS /KRAS” value [3, 5]?
Answer: B (a compound having 3 or more and less than 10 is denoted as B)

Question: What does the source list for `CCO[C@@H]1C[C@H]2C(=O)NC3(CC(C)(C)C3)C(=O)N(C)[C@@H](C3CCCC3)C(=O)N(C)[C@H](C(=O)N(C)CC)CC(=O)N(C)[C@H]3CCCCCc4ccc(cc4)C[C@@H](C(=O)N(C)CC(=O)N[C@@H](CCc4ccc(C(F)(F)F)c(OC)c4)C(=O)N2C1)N1CC/C=C\C[C@@H](C1=O)N(C)C(=O)CN(C)C(=O)[C@H]([C@@H](C)CC)NC3=O` [PP2259]?
Answer: IC50 [1]: 6.5 nM; NRAS /KRAS [2, 6]: A (a compound having 10 or more and less than 20 is denoted as A); HRAS /KRAS [3, 7]: B (a compound having 3 or more and less than 10 is denoted as B)

Question: For `CCCN1C(=O)CN(C)C(=O)CN(C)C(=O)[C@H]([C@@H](C)CC)NC(=O)[C@H](CC(C)C)N(C)C(=O)C[C@@H](C(=O)N2CCOCC2)N(C)C(=O)[C@H](C2CCCC2)N(C)C(=O)C2(CCCC2)NC(=O)[C@@H]2C[C@H](OCC)CN2C(=O)[C@H](CCc2ccc(C(F)(F)F)c(Cl)c2)NC(=O)CN(C)C(=O)[C@@H]1Cc1ccc(C(F)(F)F)cc1` [PP0243] ([NMeL]I[Sar][Sar][NPrPhe(4-CF3)][Sar][hPhe(3-Cl-4-CF3)][cisHyp](Et)[Ac5c][NMeGly(cPent)][NMeD]-Morpholide; lactam N-11), which IC50 [1] is on record?
Answer: 23.2 nM

Question: What about the “NRAS /KRAS” value [2, 4] of the same compound?
Answer: B (a compound having 3 or more and less than 10 is denoted as B)

Question: And the “HRAS /KRAS” value [3, 5]?
Answer: C (A compound having a KD ratio of 0.1 or more and less than 3 is denoted as C)

Question: Which IC50 [1] does the source give for `CC[C@H](C)[C@@H]1NC(=O)[C@H](CC(C)C)N(C)C(=O)C[C@@H](C(=O)N(C)C)N(C)C(=O)[C@H](C2CCCC2)N(C)C(=O)C2(CCC2)NC(=O)[C@@H]2CCCN2C(=O)[C@H](CCc2cc(F)c(C(F)(F)F)c(F)c2)NC(=O)CN(C)C(=O)[C@H](Cc2ccc(C(F)(F)F)cc2)N2CCCCC[C@@H](C2=O)N(C)C(=O)CN(C)C1=O` [PP0512] here?
Answer: 29.4 nM

Question: What about the “NRAS /KRAS” value [2, 6] of the same compound?
Answer: B (a compound having 3 or more and less than 10 is denoted as B)

Question: And the “HRAS /KRAS” value [3, 7]?
Answer: B (a compound having 3 or more and less than 10 is denoted as B)

Question: `CCC[C@@H]1C[C@H]2C(=O)NC3(CC(C)(C)C3)C(=O)N(C)[C@@H](C3CCCC3)C(=O)N(C)[C@H](C(=O)N(C)C)CC(=O)N(C)[C@@H](CC)C(=O)N[C@@H]([C@@H](C)CC)C(=O)N(C)CC(=O)N(C)[C@H]3C/C=C\CCN(C3=O)[C@@H](Cc3ccc(C)cc3)C(=O)N(C)CC(=O)N[C@@H](CCc3cc(F)c(C(F)(F)F)c(F)c3)C(=O)N2C1` [PP2208] was tested. Which IC50 [1] did it give?
Answer: 17.8 nM

Question: What about the “NRAS /KRAS” value [2, 6] of the same compound?
Answer: A (a compound having 10 or more and less than 20 is denoted as A)

Question: And the “HRAS /KRAS” value [3, 7]?
Answer: A (a compound having 10 or more and less than 20 is denoted as A)

Question: For `CCCN1C(=O)[C@@H]2CCN2C(=O)CN(C)C(=O)[C@H]([C@@H](C)CC)NC(=O)[C@H](CC(C)C)N(C)C(=O)C[C@@H](C(=O)N(C)C)N(C)C(=O)[C@H](C2CCCC2)N(C)C(=O)C2(CCCC2)NC(=O)[C@@H]2CCCN2C(=O)[C@H](CCc2ccc(C(F)(F)F)c(Cl)c2)NC(=O)CN(C)C(=O)[C@@H]1Cc1ccc(C(F)(F)F)cc1` [PP0440] ([NMeL]I[Sar][Aze][NPrPhe(4-CF3)][Sar][hPhe(3-Cl-4-CF3)]P[Ac5c][NMeGly(cPent)][NMeD]-NMe2; lactam N-11), which IC50 [1] is on record?
Answer: 4.4 nM

Question: What about the “NRAS /KRAS” value [2, 6] of the same compound?
Answer: C (A compound having a KD ratio of 0.1 or more and less than 3 is denoted as C)

Question: And the “HRAS /KRAS” value [3, 7]?
Answer: B (a compound having 3 or more and less than 10 is denoted as B)

Question: How did the IC50 [1] turn out when `CCC[C@H]1C(=O)N[C@@H](C2CCCC2)C(=O)N(C)CC(=O)N(C)[C@H]2C/C=C\CCN(C2=O)[C@@H](Cc2ccc(C(F)(F)F)cc2)C(=O)N(C)CC(=O)N[C@@H](CCc2ccc(C(F)(F)F)c(Cl)c2)C(=O)N2CC3(CC3)C[C@H]2C(=O)NC2(CC(C)(C)C2)C(=O)N(C)[C@@H](CC(C)(C)C)C(=O)N(C)[C@H](C(=O)N(C)C)CC(=O)N1C` [PP2981] was run?
Answer: 20.3 nM

Question: What about the “NRAS /KRAS” value [2, 4] of the same compound?
Answer: AA (a compound having 20 or more is denoted as AA)

Question: What about the “HRAS /KRAS” value [3, 5] of the same compound?
Answer: A (a compound having 10 or more and less than 20 is denoted as A)

Question: `CCO[C@@H]1C[C@H]2C(=O)NC3(CCC3)C(=O)N(C)[C@@H](C3CCCC3)C(=O)N(C)[C@H](C(=O)N(C)CCOC)CC(=O)N(C)[C@@H](CC)C(=O)N[C@@H]([C@@H](C)CC)C(=O)N(C)CC(=O)N(C)[C@H]3C/C=C\CCN(C3=O)[C@@H](Cc3ccc(C(F)(F)F)cc3)C(=O)N(C)CC(=O)N[C@@H](CCc3ccc(C(F)(F)F)c(OC)c3)C(=O)N2C1` [PP1321] was tested. Which IC50 [1] did it give?
Answer: 13.9 nM

Question: And the “NRAS /KRAS” value ([2]; ratio of KD with respect to GDP-bound NRAS wild-type protein to KD with respect to KRAS)?
Answer: A (a compound having 10 or more and less than 20 is denoted as A)

Question: What about the “HRAS /KRAS” value ([3]; ratio of KD with respect to HRAS wild-type protein to KD with respect to KRAS) of the same compound?
Answer: B (a compound having 3 or more and less than 10 is denoted as B)

Question: For `C#CC[C@H]1C(=O)N[C@@H]([C@@H](C)CC)C(=O)N(C)CC(=O)N(C)[C@H]2C/C=C\CCN(C2=O)[C@@H](Cc2ccc(C(F)(F)F)cc2)C(=O)N(C)CC(=O)N[C@@H](CCc2cc(F)c(C(F)(F)F)c(F)c2)C(=O)N2C[C@@H](C)C[C@H]2C(=O)NC2(CC(C)(C)C2)C(=O)N(C)[C@@H](C2CCCC2)C(=O)N(C)[C@H](C(=O)N(C)CCC)CC(=O)N1C` [PP2076], which IC50 [1] is on record?
Answer: 15.6 nM

Question: And the “NRAS /KRAS” value [2, 6]?
Answer: A (a compound having 10 or more and less than 20 is denoted as A)

Question: And the “HRAS /KRAS” value [3, 7]?
Answer: A (a compound having 10 or more and less than 20 is denoted as A)

Question: Which results are given for `CC[C@H](C)[C@@H]1NC(=O)[C@H](CC(C)C)N(C)C(=O)C[C@@H](C(=O)N2CCOCC2)N(C)C(=O)[C@H](C2CCCC2)N(C)C(=O)C2(CCCC2)NC(=O)[C@@H]2CCCN2C(=O)[C@H](CCc2cc(F)c(C(F)(F)F)c(F)c2)NC(=O)CN(C)C(=O)[C@H](Cc2ccc(C(F)(F)F)cc2)N2CCCC[C@@H](C2=O)N(C)C(=O)CN(C)C1=O` [PP0552]?
Answer: IC50 [1]: 2.8 nM; NRAS /KRAS [2, 6]: B (a compound having 3 or more and less than 10 is denoted as B); HRAS /KRAS [3, 7]: B (a compound having 3 or more and less than 10 is denoted as B)

Question: Which results are given for `CCO[C@@H]1C[C@H]2C(=O)NC3(CC(C)(C)C3)C(=O)N(C)[C@@H](C3CCCC3)C(=O)N(C)[C@H](C(=O)N(C)C)CC(=O)N(C)[C@@H](CC(C)C)C(=O)N[C@@H]([C@@H](C)CC)C(=O)N(C)CC(=O)N(C)[C@H]3C/C=C\CCN(C3=O)[C@@H](Cc3ccc(C(C)(F)F)cc3)C(=O)N(C)CC(=O)N[C@@H](CCc3ccc(C(F)(F)F)c(OC)c3)C(=O)N2C1` [PP2690]?
Answer: IC50 ([1]; NCI-H441 cells, 4 days, CellTiter-Glo, read-out: NCl-H441 IC50): 3 nM; NRAS /KRAS [2, 4]: AA (a compound having 20 or more is denoted as AA); HRAS /KRAS [3, 5]: A (a compound having 10 or more and less than 20 is denoted as A)
